This note sets out measurements from patent US20240390353A1, “METHOD OF TREATMENT WITH TRADIPITANT” (Vanda Pharmaceuticals Inc., priority 2018, published 2024).

Entries after “also recorded” stand apart in the source; their conditions may differ.

The subject of the assay is otherwise healthy adults reporting regular illicit opioid misuse. In words: Double-blind within-subject crossover inpatient study: subject-rated outcomes of intranasal oxycodone during tradipitant vs placebo maintenance (sample sessions). It counts as in vivo, human. The procedure: A double-blind, inpatient, approximately 6 week study employing a within-subject crossover design examines the effects of maintenance with tradipitant as compared to placebo on response to oxycodone. Study subjects include otherwise healthy adults reporting regular illicit opioid misuse, and history of intranasal opioid use without physical dependence.
Subjects are administered placebo or tradipitant (85 mg p.o., bid) on study days 3-17 with a washout period on days 18-23, followed by administration of placebo or tradipitant (85 mg p.o., bid) on study days 24-39. In the study, tradipitant/placebo administration is counterbalanced across subjects. On study days 3, […], 24, and 39, subjects participate in challenge sessions (day 1 and steady state) in which they receive 0, 5, 10, or 20 mg intranasal (IN) oxycodone at 1 hr. intervals, after which effect of tradipitant on analgesia in humans is evaluated. On study days 2, 8, 11, 15, 29, 32, and 36, subjects participate in sample sessions in which subjects are administered 0, 15, or 30 mg IN oxycodone, after which effect of tradipitant on subject-rated outcomes is evaluated. Such subject-rated outcomes include responses to questions including “how much do you like the drug,” “does the drug have any good effects,” “do you feel any drug effect,” and “how much do you desire opiates right now?” Further, on study days 9, 12, 16, 30, 33, and 37, subjects participate in choice sessions, in which effect of tradipitant on oxycodone self-administration is evaluated.

Setting [1] is: 0, 15 or 30 mg IN oxycodone, difference from 0 mg.
[2] abbreviates: tradipitant 85 mg p.o. bid maintenance, at some opioid drug doses, e.g. 15 mg IN oxycodone, FIGS. 1-3.

Turning to `COc1ccc2c3c1O[C@H]1C(=O)CC[C@@]4(O)[C@@H](C2)N(C)CC[C@]314` [Oxycodone, oxycodone, reference compound], the “effect of oxycodone dose on trough scores for desire for opioids” value (0, 15 or 30 mg IN oxycodone) is listed as “no significant effect”. Under setting [1], the “peak ratings of good effects” value was “significant and dose-dependent increases”; the “peak ratings of liking for the drug” value was “significant and dose-dependent increases”; the “peak ratings of overall drug effect” value is “significant and dose-dependent increases”.
For the molecule `O=C(c1ccccc1Cl)c1cccnc1-c1nnn(Cc2cc(C(F)(F)F)cc(C(F)(F)F)c2)c1-c1ccncc1` [tradipitant], the “desire for opioids (cravings), trough scores ("how much do you desire opiates right now?")” value (tradipitant 85 mg p.o. bid maintenance compared to placebo maintenance, 0, 15 or 30 mg IN oxycodone, FIG. 4) is recorded as “diminished; also recorded: reduces”. Moreover, under setting [2], the “perception of how good the effects of the drug were” value is “decreases”, the “perception of how much of a drug effect was felt” value was “decreases” and the “perception of how much the opioid drug was liked” value is “decreases”. The “pleasurable and drug seeking sensations” value (tradipitant maintenance, at some doses) is “decreases”.
